Assay: molar heat capacity at constant pressure
Conditions: 101.33 kPa, Liquid, Small sample (50 mg) DSC

CC(=O)[O-].CCCCn1cc[n+](C)c1 [1-butyl-3-methylimidazolium acetate]
Conditions	molar heat capacity at constant pressure [J/K/mol]
253.15 K	359.54
258.15 K	361.57
263.15 K	363.69
268.15 K	365.9
273.15 K	368.21
278.15 K	370.61
283.15 K	373.1
293.15 K	378.36
298.15 K	381.12
303.15 K	383.98
313.15 K	389.98
323.15 K	396.35
333.15 K	403.09
343.15 K	410.2
353.15 K	417.68
363.15 K	425.53
373.15 K	433.75
383.15 K	442.34
393.15 K	451.3
403.15 K	460.63
413.15 K	470.33

Source: the NIST ThermoML archive (doi:10.1016/j.fluid.2014.10.015)
